Measured values: patent publication US12583820B2, “Broad spectrum antivirals against coronavirus” (priority 2020, dated 2026)
Read-outs that look alike come from different tables or passages of the source.

What was measured:
3CLpro of SARS-CoV-2 = biological target: T1, 3CLpro of SARS-CoV-2 (Severe acute respiratory syndrome coronavirus 2, UniProt P0DTD1); test: biochemical; assay type: biochemical
T1 construct: The codon-optimized cDNA of full length of 3CLpro of SARS-CoV-2; 6xHis (N); made in house; pET-28a(+) vector (points to E. coli, my inference)

[1] = Nonspecific cytotoxic effects (CC50), CytoTox 96 kit

In the case of `CC(C)C[C@H](NC(=O)OC1CCC(C)(C)CC1)C(=O)N[C@H](C=O)C[C@@H]1CCNC1=O` [Compound 1b, 4,4-Dimethylcyclohexyl ((S)-4-methyl-1-oxo-1-(((S)-1-oxo-3-((S)-2-oxopyrrolidin-3-yl)propan-2-yl)amino)pentan-2-yl)carbamate], the IC50 (3CLpro of SARS-CoV-2) is reported as 280 nM and the CC50 at 72 h [1] is reported as over 100000 nM.

For `CC(C)C[C@H](NC(=O)O[C@H]1CC[C@H](C(C)C)CC1)C(=O)N[C@H](C=O)C[C@@H]1CCNC1=O` [Compound 2b, (1r,4S)-4-isopropylcyclohexyl ((S)-4-methyl-1-oxo-1-(((S)-1-oxo-3-((S)-2-oxopyrrolidin-3-yl)propan-2-yl)amino)pentan-2-yl)carbamate], the IC50 (3CLpro of SARS-CoV-2) was 250 nM and the CC50 at 72 h [1] was over 100000 nM.

`CC(C)CC(NC(=O)OC1CCC(C(C)C)CC1)C(=O)NC(CC1CCNC1=O)C(O)S(=O)(=O)O` [Compound 2c, Sodium (2S)-1-hydroxy-2-((S)-2-(((((1r,4S)-4-isopropylcyclohexyl)oxy)carbonyl)amino)-4-methylpentanamido)-3-((S)-2-oxopyrrolidin-3-yl)propane-1-sulfonate] showed an IC50 (3CLpro of SARS-CoV-2) of 230 nM and a CC50 at 72 h [1] of over 100000 nM.

With `CCCC1CCC(OC(=O)NC(CC(C)C)C(=O)NC(C=O)CC2CCNC2=O)CC1` [Compound 3b, (1s,4S)-4-propylcyclohexyl ((S)-4-methyl-1-oxo-1-(((S)-1-oxo-3-((S)-2-oxopyrrolidin-3-yl)propan-2-yl)amino)pentan-2-yl)carbamate] the IC50 (3CLpro of SARS-CoV-2) was 260 nM and the CC50 at 72 h [1] was over 100000 nM.

`CCCCC1CCC(OC(=O)NC(CC(C)C)C(=O)NC(C=O)CC2CCNC2=O)CC1` [Compound 4b, (1s,4S)-4-Butylcyclohexyl ((S)-4-methyl-1-oxo-1-(((S)-1-oxo-3-((S)-2-oxopyrrolidin-3-yl)propan-2-yl)amino)pentan-2-yl)carbamate] gave an IC50 (3CLpro of SARS-CoV-2) of 160 nM and a CC50 at 72 h [1] of over 100000 nM.

With `CCCC1CCC(COC(=O)NC(CC(C)C)C(=O)NC(C=O)CC2CCNC2=O)CC1` [Compound 8b, ((1r,4R)-4-Propylcyclohexyl) methyl ((2S)-4-methyl-1-oxo-1-(((2S)-1-oxo-3-(2-oxopyrrolidin-3-yl)propan-2-yl)amino)pentan-2-yl) carbamate] the IC50 (3CLpro of SARS-CoV-2) was 220 nM and the CC50 at 72 h [1] was over 100000 nM.

Compound `CC(C)C[C@H](NC(=O)OCC1CCC(F)(F)CC1)C(=O)N[C@H](C=O)C[C@@H]1CCNC1=O` [Compound 10b, (4,4-Difluorocyclohexyl)methyl ((S)-4-methyl-1-oxo-1-(((S)-1-oxo-3-((S)-2-oxopyrrolidin-3-yl)propan-2-yl)amino)pentan-2-yl)carbamate] has a CC50 at 72 h [1] of over 100000 nM.

In the case of `CC(C)C[C@H](NC(=O)OCC1CCC(F)(F)CC1)C(=O)N[C@@H](C[C@@H]1CCNC1=O)C(O)S(=O)(=O)O` (stereo partly drawn) [Compound 10c, Sodium (2S)-2-((S)-2-((((4,4-difluorocyclohexyl)methoxy)carbonyl)amino)-4-methylpentanamido)-1-hydroxy-3-((S)-2-oxopyrrolidin-3-yl)propane-1-sulfonate], the IC50 (3CLpro of SARS-CoV-2; read-out: IC50) is reported as 450 nM and the CC50 at 72 h [1] is reported as over 100000 nM.

With `[2H]C([2H])(OC(=O)N[C@@H](CC(C)C)C(=O)N[C@H](C=O)CC1CCNC1=O)C1CCC(F)(F)CC1` (stereo partly drawn) [Compound 11b, (4,4-Difluorocyclohexyl) methyl-d2 ((2S)-4-methyl-1-oxo-1-(((2S)-1-oxo-3-(2-oxopyrrolidin-3-yl)propan-2-yl)amino)pentan-2-yl) carbamate] the CC50 at 72 h [1] was over 100000 nM.

Compound `CC(C)C[C@H](NC(=O)OC(C)C1CCC(F)(F)CC1)C(=O)N[C@H](C=O)C[C@@H]1CCNC1=O` (stereo partly drawn) [Compound 12b, 1-(4,4-Difluorocyclohexyl)ethyl ((S)-4-methyl-1-oxo-1-(((S)-1-oxo-3-((S)-2-oxopyrrolidin-3-yl)propan-2-yl)amino)pentan-2-yl)carbamate] has an IC50 (3CLpro of SARS-CoV-2) of 210 nM and a CC50 at 72 h [1] of over 100000 nM.

For `CC(C)C[C@H](NC(=O)OC(C)(C)C1CCC(F)(F)CC1)C(=O)N[C@H](C=O)C[C@@H]1CCNC1=O` [Compound 13b, 2-(4,4-Difluorocyclohexyl)propan-2-yl ((S)-4-methyl-1-oxo-1-(((S)-1-oxo-3-((S)-2-oxopyrrolidin-3-yl)propan-2-yl)amino)pentan-2-yl)carbamate], the IC50 (3CLpro of SARS-CoV-2) was 800 nM and the CC50 at 72 h [1] was over 100000 nM.

For `CC(C)C[C@H](NC(=O)OC(C)(C)C1CCC(F)(F)CC1)C(=O)N[C@@H](C[C@@H]1CCNC1=O)C(O)S(=O)(=O)[O-].[Na+]` (stereo partly drawn) [Compound 13c, Sodium (2S)-2-((S)-2-((((2-(4,4-difluorocyclohexyl)propan-2-yl)oxy)carbonyl)amino)-4-methylpentanamido)-1-hydroxy-3-((S)-2-oxopyrrolidin-3-yl)propane-1-sulfonate], the IC50 (3CLpro of SARS-CoV-2) was 900 nM, the “fold higher IC50 than those of 12b and 14c” value (3CLpro of SARS-CoV-2) was about 4 fold and the CC50 at 72 h [1] was over 100000 nM.

Work on `CC(C)C[C@H](NC(=O)OC(Cc1ccccc1)C1CCC(F)(F)CC1)C(=O)N[C@H](C=O)C[C@@H]1CCNC1=O` (stereo partly drawn) [Compound 14b, 1-(4,4-Difluorocyclohexyl)-2-phenylethyl ((S)-4-methyl-1-oxo-1-(((S)-1-oxo-3-((S)-2-oxopyrrolidin-3-yl)propan-2-yl)amino)pentan-2-yl)carbamate] yielded an IC50 (3CLpro of SARS-CoV-2) of 230 nM and a CC50 at 72 h [1] of over 100000 nM.

`CC(C)C[C@H](NC(=O)OC(c1ccccc1)C1CCC(F)(F)CC1)C(=O)N[C@H](C=O)C[C@@H]1CCNC1=O` (stereo partly drawn) [Compound 15b, (4,4-Difluorocyclohexyl)(phenyl)methyl ((S)-4-methyl-1-oxo-1-(((S)-1-oxo-3-((S)-2-oxopyrrolidin-3-yl)propan-2-yl)amino)pentan-2-yl)carbamate] gave an IC50 (3CLpro of SARS-CoV-2) of 100 nM and a CC50 at 72 h [1] of over 100000 nM.

Compound `CC(C)C[C@H](NC(=O)OC(c1ccccc1)C1CCC(F)(F)CC1)C(=O)N[C@@H](C[C@@H]1CCNC1=O)C(O)S(=O)(=O)O` (stereo partly drawn) [Compound 15c, Sodium (2S)-2-((2S)-2-((((4,4-difluorocyclohexyl)(phenyl)methoxy)carbonyl)amino)-4-methylpentanamido)-1-hydroxy-3-((S)-2-oxopyrrolidin-3-yl)propane-1-sulfonate] has an IC50 (3CLpro of SARS-CoV-2) of 160 nM and a CC50 at 72 h [1] of over 100000 nM.

`CCCCC(OC(=O)N[C@@H](CC(C)C)C(=O)N[C@H](C=O)C[C@@H]1CCNC1=O)C1CCC(F)(F)CC1` (stereo partly drawn) [Compound 16b, 1-(4,4-Difluorocyclohexyl)pentyl ((S)-4-methyl-1-oxo-1-(((S)-1-oxo-3-((S)-2-oxopyrrolidin-3-yl)propan-2-yl)amino)pentan-2-yl)carbamate] gave an IC50 (3CLpro of SARS-CoV-2) of 160 nM and a CC50 at 72 h [1] of over 100000 nM.

With `CCCCC(OC(=O)N[C@@H](CC(C)C)C(=O)N[C@@H](C[C@@H]1CCNC1=O)C(O)S(=O)(=O)O)C1CCC(F)(F)CC1` (stereo partly drawn) [Compound 16c, Sodium (2S)-2-((2S)-2-((((1-(4,4-difluorocyclohexyl)pentyl)oxy)carbonyl)amino)-4-methylpentanamido)-1-hydroxy-3-((S)-2-oxopyrrolidin-3-yl)propane-1-sulfonate] the IC50 (3CLpro of SARS-CoV-2) was 250 nM and the CC50 at 72 h [1] was over 100000 nM.

For `CC(C)C[C@H](NC(=O)OCc1ccccc1F)C(=O)N[C@H](C=O)C[C@@H]1CCNC1=O` [Compound 17b, 2-Fluorobenzyl ((S)-4-methyl-1-oxo-1-(((S)-1-oxo-3-((S)-2-oxopyrrolidin-3-yl)propan-2-yl)amino)pentan-2-yl)carbamate], the IC50 (3CLpro of SARS-CoV-2) was 380 nM and the CC50 at 72 h [1] was over 100000 nM.

`CC(C)C[C@H](NC(=O)OCc1ccccc1F)C(=O)N[C@@H](C[C@@H]1CCNC1=O)C(O)S(=O)(=O)O` (stereo partly drawn) [Compound 17c, Sodium (2S)-2-((S)-2-((((2-fluorobenzyl)oxy)carbonyl)amino)-4-methylpentanamido)-1-hydroxy-3-((S)-2-oxopyrrolidin-3-yl)propane-1-sulfonate] gave an IC50 (3CLpro of SARS-CoV-2) of 400 nM and a CC50 at 72 h [1] of over 100000 nM.

Compound `CC(C)C[C@H](NC(=O)OCc1cccc(F)c1)C(=O)N[C@H](C=O)C[C@@H]1CCNC1=O` [Compound 18b, 3-Fluorobenzyl ((S)-4-methyl-1-oxo-1-(((S)-1-oxo-3-((S)-2-oxopyrrolidin-3-yl)propan-2-yl)amino)pentan-2-yl)carbamate] has an IC50 (3CLpro of SARS-CoV-2) of 320 nM and a CC50 at 72 h [1] of over 100000 nM.

Compound `CC(C)C[C@H](NC(=O)OCc1ccc(F)cc1)C(=O)N[C@H](C=O)C[C@@H]1CCNC1=O` [Compound 19b, 4-Fluorobenzyl ((S)-4-methyl-1-oxo-1-(((S)-1-oxo-3-((S)-2-oxopyrrolidin-3-yl)propan-2-yl)amino)pentan-2-yl)carbamate] has a CC50 at 72 h [1] of over 100000 nM.

Work on `[2H]C([2H])(OC(=O)N[C@@H](CC(C)C)C(=O)N[C@H](C=O)C[C@@H]1CCNC1=O)c1ccc(F)cc1` [Compound 20b, (4-Fluorophenyl)methyl-d2 ((S)-4-methyl-1-oxo-1-(((S)-1-oxo-3-((S)-2-oxopyrrolidin-3-yl)propan-2-yl)amino)pentan-2-yl)carbamate] yielded a CC50 at 72 h [1] of over 100000 nM.

With `[2H]C([2H])(OC(=O)N[C@@H](CC(C)C)C(=O)N[C@@H](C[C@@H]1CCNC1=O)C(O)S(=O)(=O)[O-])c1ccc(F)cc1.[Na+]` (stereo partly drawn) [Compound 20c, Sodium (2S)-2-((S)-2-((((4-fluorophenyl)methoxy-d2)carbonyl)amino)-4-methylpentan amido)-1-hydroxy-3-((S)-2-oxopyrrolidin-3-yl)propane-1-sulfonate] the CC50 at 72 h [1] was over 100000 nM.

For `CC(C)C[C@H](NC(=O)OCc1c(F)c(F)c(F)c(F)c1F)C(=O)N[C@H](C=O)CC1CCNC1=O` (stereo partly drawn) [Compound 21b, (Perfluorophenyl)methyl ((2S)-4-methyl-1-oxo-1-(((2S)-1-oxo-3-(2-oxopyrrolidin-3-yl)propan-2-yl)amino)pentan-2-yl) carbamate], the CC50 at 72 h [1] was over 100000 nM.

For `CC(C)CC(NC(=O)OCC1C(c2ccccc2)C1(F)F)C(=O)NC(C=O)CC1CCNC1=O` (centres unmarked) [GC1269], the IC50 (3CLpro of SARS-CoV-2) was 140 nM.

For `CC(C)CC(NC(=O)OCC1C(c2ccccc2)C1(F)F)C(=O)NC(CC1CCNC1=O)C(O)S(=O)(=O)O` (centres unmarked) [GC1270], the IC50 (3CLpro of SARS-CoV-2) was 160 nM.

For `CC(C)C[C@H](NC(=O)OCC(C)(C)Oc1ccc(Cl)cc1)C(=O)N[C@H](C=O)CC1CCNC1=O` (some centres unmarked) [MM-II-42], the IC50 (3CLpro of SARS-CoV-2) was 260 nM.

For `CC(C)C[C@H](NC(=O)OCC(C)(C)Oc1ccc(Cl)cc1)C(=O)N[C@@H](CC1CCNC1=O)C(O)S(=O)(=O)O` (some centres unmarked) [MM-II-43], the IC50 (3CLpro of SARS-CoV-2) was 240 nM.
